Reference: patent US20220370636A1, “NICOTINAMIDE ADENINE DINUCLEOTIDE ACTIVATOR AND USE THEREOF” (University of South Florida, priority 2021, published 2022)

Assays:
[1] = tested on: C57BL6 mice tibialis anterior muscle; assay: BaCl2 induced tibialis anterior muscle injury in mice; type: in vivo
Description: Saline or 50 μl of 1% BaCl2 was injected in belly region of the muscle to induce inflammation. Muscle damage was assessed by H&E staining at day 7. The percentage of fibers recovered in higher in P7C3 treated group compared with saline treated group (FIG. 1B). The centrally placed nuclei were higher in P7C3 treated group with 3 or higher number of nuclei (FIG. 1C).
P7C3 administration (1 wk, 5 mg/kg bodyweight/day, i.p.) rescued tibialis anterior muscle injury induced by BaCl2 in mice. Administration of P7C3 increased frequency of myofiber number and fusion index as noted by increased centrally-nucleated fibers (FIGS. 1A-1C). Overall, these show the use P7C3, and the efficacy of P7C3 as a drug for muscle repair.

db/db mice [2] = assay: Luminex Magpix IP-10 immunoassay of serum; type: in vivo; conditions: vs db-Veh
Description: Luminex Magpix IP-10 (C—X—C motif chemokine ligand 10) immunoassay. The serum inflammatory markers were analysed using a mouse cytokine/chemokine antibody-immobilized premixed 32-plex Luminex magnetic beads based 96-Well plate immunoassay kit (Milliplex Map kit—MCYTMAG-70K-PX32, EMD Millipore Corporation, MA, USA) according to the manufacturer's instruction. Briefly, the serum samples were diluted at 1:2 in the assay buffer and measured in duplicates along with the standards and quality controls. The serum samples were incubated overnight at 4° C. with the magnetic beads. The wells were then washed with wash buffer and incubated with the detection antibodies for 1 h at RT, followed by a streptavidin-phycoerythrin incubation for 30 min at RT. After washing, the plate was run on MAGPIX with xPONENT software. The mean fluorescent intensity data was analysed using a five-parameter logistic curve-fitting Multi Analyst software for calculating the cytokine/chemokine concentrations of the samples (n=6 mice per group).

db/db mice [3] = assay: Grip strength and voluntary running wheel in db/db mice; type: in vivo; conditions: 4 weeks, vs db-Veh
Description: Grip strength and voluntary running wheel. The fore-limb and hind-limb grip strengths were measured with the use of Chatillon force measurement DFE II grip strength meter (Ametek, Columbus Instruments, OH, USA). The average of five measurements per mice is represented as KGF/kg body weight for both the fore-limb and hind-limb grip strengths measured. The overnight voluntary running wheel experiments were carried out with the Columbus Instruments O297, the CI Multi-Device Interface (Columbus Instruments, OH, USA) per manufacturer's recommendations.

db/db mice [4] = assay: Serum HDL and LDL/VLDL in db/db mice; type: in vivo; conditions: vs db-Veh
Text: Fasting blood glucose and serum lipid.

C57Bl/6J wildtype hearts = assay: Ex vivo ischemia reperfusion (Langendorff) in wildtype hearts; parameters: species or system mice
Description: Ex vivo ischemia reperfusion protocol. Mice were injected with heparin (360 USP units, Sigma-Aldrich, MO, USA) and euthanized with Somnasol™ (pentobarbital, 50 mg/kg i.p. body weight). Hearts were then excised and mounted on to the Langendorff apparatus immediately and perfused with Krebs-Hanseleit buffer containing (in mM): 119 NaCl, 25 NaHCO3, 4 KCl, 1 MgCl2, 1.8 CaCl2), 1 MgCl2, 10 glucose and 2 Sodium pyruvate, pH 7.4, that was constantly bubbled with carbogen gas and maintained at 37° C. as described previously. Perfusion was maintained at a constant flow of ˜2.2 ml/min. Hearts were stabilized for 30 min before proceeding to the ischemic phase. Hearts that underwent P7C3 (3 μM) treatment during the Langendorff procedure were allowed to stabilize for 10 mins then a 20 min perfusion with P7C3 (3 μM) (within Krebs-Hanseleit buffer) as pre-ischemic dosing. Cardiac ischemia was induced by the pause in Krebs-Hanseleit buffer perfusion for 45 min. Reperfusion was induced with the induction of Krebs-Hanseleit buffer at a constant flow of ˜2.2 ml/min for 2 hours. Hearts that underwent P7C3 (3 μM) treatment received 2-hour reperfusion with P7C3 within the Krebs-Hanseleit buffer. Hearts were then removed from the Langendorff apparatus and immediately placed in −20° C. freezer for 30 minutes. Hearts were then placed on a sectioning block and sliced into ([…]) slices. Heart sections were subjected to 2,3,5-Triphenyltetrazolium chloride (TTC) staining for 30 minutes. Hearts were then imaged and scanned for ischemic damage assessment. Image J software was utilized to quantify the ischemic areas for several sections per heart, which were then averaged and divided by the total area of the heart section and multiplied by a factor of ×100(%) to determine the overall damage percentage per heart.
Lactate Dehydrogenase activity. […]. The absorbance intensity was measured at 450 nm.
Troponin I activity. […].
Western blotting. For studies aimed to assess the insulin stimulated AKT phosphorylation, following four-week P7C3 treatment, mice were injected with Novolin R human insulin (1 Unit/kg body weight, i.p.), and hearts were collected after 5 minutes for Western blot analysis. Protein lysates for Western blotting were prepared from mouse hearts as described previously. Equivalent amounts of protein were loaded and resolved using 12% precast polyacrylamide gels (BioRad, CA, USA). Successful transfer of proteins was detected using Ponceau S (Sigma-Aldrich, MO, USA), and blots were probed with mouse monoclonal primary antibody for phospho AKT^ser473 (p-AKT), total AKT (t-AKT), phospho eNOS^ser1177 (p-eNOS), total eNOS (t-eNOS), Beclin1, and GAPDH (Cell signaling, MA, USA). HRP conjugated Rabbit anti-mouse antibody (Millipore) was used as a secondary antibody. Target protein band densities were quantified using Image J software.

[5] = In vitro drug release by membrane dialysis; conditions: PBS pH 7.4, 37° C.
Description: In vitro Drug Release. Membrane dialysis method was used to investigate the drug release profile of P7C3 from the NPs. A 0.5 mL sample volume of aptamer conjugated, and non-conjugated P7C3 NPs was filled in dialysis cassettes (MWCO 14 KDa) and placed in 50 mL of PBS (pH 7.4) release medium with stirring at 100 rpm and temperature of 37° C. At predetermined time intervals, 1 mL sample volume of release media was removed, and the release study was continued for 7 days.

[6] = mice, 1 wk, 5 mg/kg bodyweight/day, i.p.
[7] = WT hearts perfused with P7C3 3 μM
[8] = WT hearts, following I/R injury, vs control hearts

OC(CNc1ccccc1)Cn1c2ccc(Br)cc2c2cc(Br)ccc21 (stereo not drawn) [P7C3, 3,6-Dibromo-a-[(phenylamino)methyl]-9H-carbazole-9-ethanol]
percentage of fibers recovered ([1]; H&E staining at day 7, vs saline treated group): higher | centrally placed nuclei (3 or higher number of nuclei) ([1]; day 7, vs saline treated group): higher | frequency of myofiber number [1, 6]: increased | fusion index (centrally-nucleated fibers) [1, 6]: increased | tibialis anterior muscle injury induced by BaCl2 [1, 6]: rescued | serum IP-10 levels (db/db mice [2]): significant decrease | fore-limb grip strength (db/db mice [3]): significant increase | hind-limb grip strength (db/db mice [3]): significant increase | voluntary running wheel distance covered (db/db mice [3]): significant in-crease | HDL lipoproteins level (db/db mice [4]): significant increase | LDL/VLDL lipoproteins level (db/db mice [4]): significant decrease | increase in NAD+/NADH levels (C57Bl/6J wildtype hearts; [7]): 3 fold | increase in cardiac Nampt activity (C57Bl/6J wildtype hearts; [7]): 1.7 fold | ischemic injury (infarct) (C57Bl/6J wildtype hearts; WT hearts, P7C3 3 μM pre- and post-exposure): 8% | p-AKT/t-AKT levels post I/R injury (C57Bl/6J wildtype hearts; WT hearts, P7C3 3 μM, vs vehicle control hearts): significant increase | coronary effluent LDH activity (C57Bl/6J wildtype hearts; [8]): significantly reduced | coronary effluent Troponin I (C57Bl/6J wildtype hearts; [8]): significantly reduced | cumulative drug release at day 1 (24 h) [5]: 100%
